The values below come from patent publication US20090143285A1, “TARGET PROTEIN AND TARGET GENE FOR DRUG DISCOVERY AND SCREENING METHOD” (REVERSE PROTEOMICS RESEARCH INSTITUTE CO., LTD., priority 2005, published 2009).

“Also recorded” adds a separate entry of the source. Where two headings read alike, the source gives them in different places.

The test system of assay [1] is FLJ20972-derived protein. An excerpt:
(§1) To analyze the interactions between commonly used drugs and proteins expressed from human full-length cDNA clones while keeping both the proteins and the compounds in non-modified, non-immobilized state, size exclusion chromatography (SEC) and mass analysis were used in combination. The specific procedures are shown below.
(§2) The compound-protein mixture prepared in step 1 was subjected to chromatography using an SEC column, the compound and the protein were separated by SEC, and the compound that interacted with the bound compound or protein contained in the protein fraction was analyzed using a mass analyzer.
(§3) Protein concentrations were measured using BCA Protein Assay (PIERCE), in consideration of the purity calculated by SDS-PAGE.
Mass analysis was performed using LCQ DECA XP (Thermoelectron) or Q-TOF micro (Micromass), equipped with an ESI probe. The LC pump used was Agilent 1100 (Yokogawa Analytical Systems), and the autosampler used was HTC-PAL (CTC Analytics) equipped with a cooling stacker. The SEC column used was a micro-LC column or a 384-well spin column.
The SEC column used for the micro-LC method was a TSKgel super SW2000 (TOSOH) cartridge column (1.0 mm ID×10 mm) or a TSKgel super SW2000 (TOSOH) column (1.0 mm ID×30 mm), with 10 mM ammonium acetate aqueous solution serving as the mobile phase. A conditioning solvent (0.5% formic acid/methanol solution in the positive ion mode, 0.5% ammonia/methanol solution in the negative ion mode) was mixed downstream of the SEC column via a Tee connector; the column was connected to the ESI of the mass analyzer. The flow rate was set at 40 μL/min for the SEC column side, and 10 μL/min for the conditioning solvent side.
Specifically, if the protein and the compound interact with each other, the acceleration of the elution of the compound molecules that are bound to the protein when the protein is overtaking the compound in the SEC column occurs, resulting in a change in the mass chromatogram of the compound depending on the presence or absence of the protein.
(§4) In the 384-well spin column method, Unifilter 100 (Whatman), packed with 10 μL (dry volume) of Bio-Gel P6 (BIO-RAD) and swollen with milliQ water, was used as the SEC column. […] The SEC spin column was mounted on an acetonitrile-aliquoted 384-well U-bottom plate and centrifuged; the SEC spin column filtrate, which is a protein fraction, was recovered in 50% acetonitrile. The protein precipitate produced by the acetonitrile was removed via centrifugation and filtration for deproteinization; the resulting filtrate was concentrated by centrifugal concentration and re-dissolved in 10 μL of 50% methanol to obtain a mass analysis sample. The mobile phase supplied to the mass analyzer was 0.1% formic acid/50% methanol solution in the positive ion mode, and 0.1% ammonia/50% methanol solution in the negative ion mode; these mobile phases were used at a flow rate of 40 μL/min. 2-μL of mass analysis samples were injected using an autosampler at 2-minute intervals; the mass spectral intensity of the compound was measured to retrieve the spectral intensity of the pharmaceutical compound contained in the SEC spin column filtrate (protein fraction eluted from SEC).

For assay [2], the system named is FLJ41550-derived protein. As to the kind of experiment: SEC/MS interaction analysis, FLJ41550-derived protein (SAMHD1). The format is binding, human.
From the text: as §1, §2, §3
(§5) Mass analysis was performed using LCQ DECA XP (Thermoelectron) or Q-TOF micro (Micromass), equipped with an ESI probe. The LC pump used was Agilent 1100 (Yokogawa Analytical Systems), and the autosampler used was HTC-PAL (CTC Analytics) equipped with a cooling stacker. The SEC column used was a micro-LC column or a 384-well spin column. […]
as §4

For assay [3], the system named is FLJXXXXX-derived proteins. The experiment in a line: SEC/MS spin column interaction analysis of FLJXXXXX-derived proteins and various compounds (Tables 30-1 to 30-4). The format is binding, human. The conditions noted are these: SEC spin column filtrate, spectral intensity increased with doses of compound and protein.
The target of assay [4] is T1, FLJ10420-derived protein (Homo sapiens, UniProt Q9NVZ3, T157A).
T1 construct: His-tag (N); made in house; host or cells: Escherichia coli BL21star(DE3)pLysS
T1 sequence (Q9NVZ3 1-263 T157A): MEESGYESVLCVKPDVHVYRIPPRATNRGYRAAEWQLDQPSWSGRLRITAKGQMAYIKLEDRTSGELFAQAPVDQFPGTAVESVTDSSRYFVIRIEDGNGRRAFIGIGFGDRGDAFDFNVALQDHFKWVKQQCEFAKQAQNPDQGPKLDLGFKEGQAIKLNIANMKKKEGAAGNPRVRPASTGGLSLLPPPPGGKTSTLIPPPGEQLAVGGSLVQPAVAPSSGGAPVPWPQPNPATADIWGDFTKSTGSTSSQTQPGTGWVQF
The experiment in a line: SEC/MS interaction analysis, FLJ10420-derived protein (hypothetical protein FLJ10420). The format is binding.
From the text: as §1, §2, §3, §5, §4

The target of assay [5] is FLJ40298-derived protein (Homo sapiens, UniProt Q8N5S3, P254L/R275T). The experiment in a line: SEC/MS interaction analysis, FLJ40298-derived protein (hypothetical protein FLJ40298). It counts as binding.
Chain of FLJ40298-derived protein (Q8N5S3 122-287 P254L/R275T): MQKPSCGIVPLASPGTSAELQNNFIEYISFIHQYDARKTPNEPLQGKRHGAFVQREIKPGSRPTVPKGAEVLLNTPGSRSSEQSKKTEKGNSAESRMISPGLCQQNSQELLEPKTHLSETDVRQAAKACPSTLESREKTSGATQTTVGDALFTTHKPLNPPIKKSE
From the text: as §1, §2, §3, §5, §4

For assay [6], the target named is T2, FLJ12857-derived protein (Homo sapiens, UniProt O75781, T107A).
T2 construct: His-tag (N); made in house; host or cells: Escherichia coli BL21star(DE3)pLysS
T2 sequence (O75781 74-343 isoform O75781-2 T107A): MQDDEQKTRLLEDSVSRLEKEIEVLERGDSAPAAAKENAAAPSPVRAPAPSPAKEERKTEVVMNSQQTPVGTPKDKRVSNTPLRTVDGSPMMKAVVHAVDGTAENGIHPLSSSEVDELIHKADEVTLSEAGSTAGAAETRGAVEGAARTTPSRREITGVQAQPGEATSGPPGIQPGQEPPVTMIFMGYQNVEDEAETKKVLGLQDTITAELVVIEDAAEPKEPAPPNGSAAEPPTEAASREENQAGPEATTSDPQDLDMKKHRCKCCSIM
The experiment in a line: SEC/MS interaction analysis, FLJ12857-derived protein (Paralemmin; PALM). The format is binding.
From the text: as §1, §2, §3, §5, §4

The mark [7] stands for this setting: compound 12.5 μM, protein 10 μM.
Where [8] appears, read: compound 12.5 μM, protein 25 μM.
Where [9] appears, read: compound 62.5 μM, protein 10 μM.
Setting [10] is: compound 62.5 μM, protein 25 μM.
The mark [11] stands for this setting: spin column method, doses of both compound and protein varied.

Consider `CNCCCC1c2ccccc2C=Cc2ccccc21` [protriptyline], for which the “spectrum intensity of the compound in the SEC spin column filtrate” value in assay [1] (compound 12.5 μM, protein 0 μM) turned out to be 39179; in assay [1] (compound 12.5 μM, protein 5 μM), 27260; in assay [1] (setting [7]), 39545; in assay [1] (setting [8]) it was 44522; in assay [1] (compound 25 μM, protein 0 μM) it was 53214; in assay [1] (compound 25 μM, protein 5 μM), 76771. The “spectrum intensity of the compound in the SEC spin column filtrate” value in assay [1] (compound 25 μM, protein 10 μM) is listed as 105694; in assay [1] (compound 25 μM, protein 25 μM), 132099; in assay [1] (compound 62.5 μM, protein 0 μM) it was 239324; in assay [1] (setting [9]), 390017; in assay [1] (setting [10]), 754873. In assay [1] (setting [11]), the “interaction judged from spectrum intensity of the compound in the SEC spin column filtrate (protein fraction eluted from SEC)” value is given as “concentration-dependent interaction”.
On to `CN1CCN(CCCN2c3ccccc3Sc3ccc(S(=O)(=O)N(C)C)cc32)CC1` [thioproperasine, thioproperazine], for which the “spectrum intensity of the compound in the SEC spin column filtrate” value in assay [2] (compound 12.5 μM, protein 0 μM) was 252410; in assay [2] (compound 12.5 μM, protein 5 μM), 377673; in assay [2] (setting [7]), 478699; in assay [2] (setting [8]), 941513; in assay [2] (compound 25 μM, protein 0 μM), 262646; in assay [2] (compound 25 μM, protein 5 μM), 778927. Besides, the “spectrum intensity of the compound in the SEC spin column filtrate” value in assay [2] (compound 25 μM, protein 10 μM) came to 1198533; in assay [2] (compound 25 μM, protein 25 μM) it was 983016; in assay [2] (compound 62.5 μM, protein 0 μM), 1132948; in assay [2] (compound 62.5 μM, protein 5 μM), 1457362; in assay [2] (setting [9]), 2445959; in assay [2] (setting [10]), 2997892. In assay [2] (setting [11]), the “interaction judged from spectrum intensity of the compound in the SEC spin column filtrate (protein fraction eluted from SEC)” value is “concentration-dependent interaction”. In addition, in assay [3], the “FLJ No of the derived protein with which the compound was judged to exhibit a concentration-dependent interaction” value (shortened to “FLJ No of the derived protein”) is “FLJ37909; also recorded: FLJ41550”.
Consider `COc1ccc(C(=O)NCc2cccnc2)cc1C(=O)NCc1cccnc1` [picotamide], for which the “spectrum intensity of the compound in the SEC spin column filtrate” value in assay [4] (compound 12.5 μM, protein 0 μM) was 412892; in assay [4] (compound 12.5 μM, protein 5 μM), 323916; in assay [4] (setting [7]) it was 294069; in assay [4] (compound 12.5 μM, protein 15 μM), 237571; in assay [4] (compound 25 μM, protein 0 μM), 441470; in assay [4] (compound 25 μM, protein 5 μM), 490309. In addition, the “spectrum intensity of the compound in the SEC spin column filtrate” value in assay [4] (compound 25 μM, protein 10 μM) is listed as 647010; in assay [4] (compound 25 μM, protein 15 μM), 496587; in assay [4] (compound 62.5 μM, protein 0 μM), 841101; in assay [4] (compound 62.5 μM, protein 5 μM), 1376939; in assay [4] (setting [9]), 1450464; in assay [4] (compound 62.5 μM, protein 15 μM) it was 1862334. For the same compound, the “interaction judged from spectrum intensity of the compound in the SEC spin column filtrate (protein fraction eluted from SEC)” value in assay [4] (setting [11]) is on record as “concentration-dependent interaction”. The “FLJ No of the derived protein” value in assay [3] is on record as “FLJ10420”.
Take `CCCCOc1cc(C(=O)OCCN(CC)CC)ccc1N` [benoxinate]: in assay [3], the “FLJ No of the derived protein” value is reported as “FLJ40298”. In addition, the “spectrum intensity of the compound in the SEC spin column filtrate” value in assay [5] (compound 12.5 μM, protein 0 μM) worked out at 202235; in assay [5] (compound 12.5 μM, protein 5 μM), 285949; in assay [5] (setting [7]) it was 263958; in assay [5] (setting [8]), 299357; in assay [5] (compound 25 μM, protein 0 μM), 557220; in assay [5] (compound 25 μM, protein 5 μM), 1519215. The “spectrum intensity of the compound in the SEC spin column filtrate” value was 552560 in assay [5] (compound 25 μM, protein 10 μM); 583103 in assay [5] (compound 25 μM, protein 25 μM); 815144 in assay [5] (compound 62.5 μM, protein 0 μM); 225597 in assay [5] (compound 62.5 μM, protein 5 μM); 1509221 in assay [5] (setting [9]); 2027848 in assay [5] (setting [10]). Further, the “interaction judged from spectrum intensity of the compound in the SEC spin column filtrate (protein fraction eluted from SEC)” value in assay [5] (setting [11]) is reported as “concentration-dependent interaction”.
For the compound `CC(=O)O[C@H]1C[C@@H]2CC[C@@H]3[C@H](CC[C@@]4(C)[C@H]3C[C@H]([N+]3(C)CCCCC3)[C@@H]4OC(C)=O)[C@@]2(C)C[C@@H]1[N+]1(C)CCCCC1` [pancuronium bromide], the “spectrum intensity of the compound in the SEC spin column filtrate” value was found to be 50699 in assay [6] (compound 12.5 μM, protein 0 μM); 65210 in assay [6] (compound 12.5 μM, protein 5 μM); 163033 in assay [6] (setting [7]); 193021 in assay [6] (setting [8]); 170740 in assay [6] (compound 25 μM, protein 0 μM); 491313 in assay [6] (compound 25 μM, protein 5 μM). Besides, the “spectrum intensity of the compound in the SEC spin column filtrate” value is 747644 in assay [6] (compound 25 μM, protein 10 μM); 725722 in assay [6] (compound 25 μM, protein 25 μM); 1417386 in assay [6] (compound 62.5 μM, protein 0 μM); 1918601 in assay [6] (compound 62.5 μM, protein 5 μM); 2231237 in assay [6] (setting [9]); 2511342 in assay [6] (setting [10]). For the same compound, the “interaction judged from spectrum intensity of the compound in the SEC spin column filtrate (protein fraction eluted from SEC)” value in assay [6] (setting [11]) is reported as “concentration-dependent interaction”. Moreover, the “FLJ No of the derived protein” value in assay [3] was “FLJ12857”.
